# Laboratory results published in article PMC3130141 (Archives of Drug Information, 2011).
# Test system: Japanese patients with advanced solid tumors
# Test: Adverse events by CTCAE version 3.0, Phase I dose-escalation study
# Format: in vivo, human
# [1] = all doses 10-25 mg, 18 patients
structure (smiles),measurement,setting,value
Cc1ccc(C(=O)N(CCCN)C(c2nc3snc(C)c3c(=O)n2Cc2ccccc2)C(C)C)cc1 (centres unmarked) [AZD4877],"Fatigue, patients with CTCAE grade ≥3 event",15 mg (N = 3),0 N (%)
same,"Febrile neutropenia, patients with CTCAE grade ≥3 event",15 mg (N = 3),0 N (%)
same,"Insomnia, CTCAE any grade, patients with AEs",15 mg (N = 3),0 N (%)
same,"Nasopharyngitis, CTCAE any grade, patients with AEs",15 mg (N = 3),0 N (%)
same,"Nausea, CTCAE any grade, patients with AEs",15 mg (N = 3),1 (33) N (%)
same,"Neutropenia, patients with CTCAE grade ≥3 event",15 mg (N = 3),0 N (%)
same,"Pyrexia, CTCAE any grade, patients with AEs",15 mg (N = 3),3 (100) N (%)
same,"Rash, CTCAE any grade, patients with AEs",15 mg (N = 3),3 (100) N (%)
same,"Urinary tract infection, patients with CTCAE grade ≥3 event",15 mg (N = 3),0 N (%)
same,"Anorexia, patients with CTCAE grade ≥3 event",20 mg (N = 6),0 N (%)
same,"Any grade ≥3 event, patients with CTCAE grade ≥3 event",20 mg (N = 6),1 (17) N (%)
same,"Constipation, CTCAE any grade, patients with AEs",20 mg (N = 6),1 (17) N (%)
same,"Constipation, patients with CTCAE grade ≥3 event",20 mg (N = 6),0 N (%)
same,"Diarrhea, CTCAE any grade, patients with AEs",20 mg (N = 6),0 N (%)
same,"Dizziness, CTCAE any grade, patients with AEs",20 mg (N = 6),3 (50) N (%)
same,"Fatigue, CTCAE any grade, patients with AEs",20 mg (N = 6),2 (33) N (%)
same,"Fatigue, patients with CTCAE grade ≥3 event",20 mg (N = 6),0 N (%)
same,"Febrile neutropenia, patients with CTCAE grade ≥3 event",20 mg (N = 6),0 N (%)
same,"Insomnia, CTCAE any grade, patients with AEs",20 mg (N = 6),2 (33) N (%)
same,"Nasopharyngitis, CTCAE any grade, patients with AEs",20 mg (N = 6),2 (33) N (%)
same,"Nausea, CTCAE any grade, patients with AEs",20 mg (N = 6),1 (17) N (%)
same,"Neutropenia, patients with CTCAE grade ≥3 event",20 mg (N = 6),1 (17) N (%)
same,"Pyrexia, CTCAE any grade, patients with AEs",20 mg (N = 6),2 (33) N (%)
same,"Rash, CTCAE any grade, patients with AEs",20 mg (N = 6),2 (33) N (%)
same,"Urinary tract infection, patients with CTCAE grade ≥3 event",20 mg (N = 6),0 N (%)
same,Patients who withdrew from the study due to an AE,"20 mg dose cohort, grade 2 cystitis",one patient
same,"Anorexia, patients with CTCAE grade ≥3 event",25 mg (N = 6),1 (17) N (%)
same,"Any grade ≥3 event, patients with CTCAE grade ≥3 event",25 mg (N = 6),2 (33) N (%)
same,"Constipation, CTCAE any grade, patients with AEs",25 mg (N = 6),2 (33) N (%)
same,"Constipation, patients with CTCAE grade ≥3 event",25 mg (N = 6),1 (17) N (%)
same,"Diarrhea, CTCAE any grade, patients with AEs",25 mg (N = 6),2 (33) N (%)
same,"Dizziness, CTCAE any grade, patients with AEs",25 mg (N = 6),0 N (%)
same,"Fatigue, CTCAE any grade, patients with AEs",25 mg (N = 6),3 (50) N (%)
same,"Fatigue, patients with CTCAE grade ≥3 event",25 mg (N = 6),1 (17) N (%)
same,"Febrile neutropenia, patients with CTCAE grade ≥3 event",25 mg (N = 6),1 (17) N (%)
same,"Insomnia, CTCAE any grade, patients with AEs",25 mg (N = 6),1 (17) N (%)
same,"Nasopharyngitis, CTCAE any grade, patients with AEs",25 mg (N = 6),2 (33) N (%)
same,"Nausea, CTCAE any grade, patients with AEs",25 mg (N = 6),3 (50) N (%)
same,"Neutropenia, patients with CTCAE grade ≥3 event",25 mg (N = 6),0 N (%)
same,"Pyrexia, CTCAE any grade, patients with AEs",25 mg (N = 6),1 (17) N (%)
same,"Rash, CTCAE any grade, patients with AEs",25 mg (N = 6),0 N (%)
same,"Urinary tract infection, patients with CTCAE grade ≥3 event",25 mg (N = 6),1 (17) N (%)
same,"Anorexia, patients with CTCAE grade ≥3 event","Total, all doses (N = 18)",1 (6) N (%)
same,"Any grade ≥3 event, patients with CTCAE grade ≥3 event","Total, all doses (N = 18)",3 (17) N (%)
same,"Constipation, CTCAE any grade, patients with AEs","Total, all doses (N = 18)",4 (22) N (%)
same,"Constipation, patients with CTCAE grade ≥3 event","Total, all doses (N = 18)",1 (6) N (%)
same,"Diarrhea, CTCAE any grade, patients with AEs","Total, all doses (N = 18)",5 (28) N (%)
same,"Dizziness, CTCAE any grade, patients with AEs","Total, all doses (N = 18)",5 (28) N (%)
same,"Fatigue, CTCAE any grade, patients with AEs","Total, all doses (N = 18)",7 (39) N (%)
same,"Fatigue, patients with CTCAE grade ≥3 event","Total, all doses (N = 18)",1 (6) N (%)
same,"Febrile neutropenia, patients with CTCAE grade ≥3 event","Total, all doses (N = 18)",1 (6) N (%)
same,"Insomnia, CTCAE any grade, patients with AEs","Total, all doses (N = 18)",4 (22) N (%)
same,"Nasopharyngitis, CTCAE any grade, patients with AEs","Total, all doses (N = 18)",4 (22) N (%)
same,"Nausea, CTCAE any grade, patients with AEs","Total, all doses (N = 18)",7 (39) N (%)
same,"Neutropenia, patients with CTCAE grade ≥3 event","Total, all doses (N = 18)",1 (6) N (%)
same,"Pyrexia, CTCAE any grade, patients with AEs","Total, all doses (N = 18)",6 (33) N (%)
same,"Rash, CTCAE any grade, patients with AEs","Total, all doses (N = 18)",5 (28) N (%)
same,"Urinary tract infection, patients with CTCAE grade ≥3 event","Total, all doses (N = 18)",1 (6) N (%)
same,Deaths during the study,all doses 10-25 mg,no deaths
same,Patients reporting fatigue (AE),[1],39%
same,Patients reporting nausea (AE),[1],39%
same,Patients reporting pyrexia (AE),[1],33%
same,Patients who experienced at least one AE,[1],All patients
same,Patients who experienced CTCAE grade ≥3 events,"all doses, 18 patients, one in 20 mg, two in 25 mg cohort",Three
same,Tolerability,doses up to 25 mg weekly,generally well tolerated
